Measured values: ChEMBL document CHEMBL5126508, “Therapeutic potential of quinazoline derivatives for Alzheimer's disease: A comprehensive review” (Eur J Med Chem, 2022)
Values belong to the compound of their own block, whether it stands above or below them.

Experiments:
[1] = Antioxidant activity assessed as radical scavenging at 100 ug/ml by DPPH assay relative to control; assay type: functional
[2] = biological target: T1, Acetylcholinesterase (Electrophorus electricus, UniProt O42275); assay: Inhibition of electric eel AChE incubated measured after 25 mins by spectrophotometric analysis
[3] = biological target: T2, Cholinesterase (Equus caballus, UniProt P81908); assay: Inhibition of equine serum BuChE incubated measured after 25 mins by spectrophotometric analysis; assay type: cell-free
[4] = Ratio of IC50 for electric eel AChE to ratio of IC50 for equine BuChE
[5] = biological target: T3, Acetylcholinesterase (Homo sapiens, UniProt P22303); assay: Inhibition of AChE (unknown origin)
[6] = biological target: T4, Cholinesterase (Homo sapiens, UniProt P06276); assay: Inhibition of BuChE (unknown origin)
[7] = biological target: T3, Acetylcholinesterase; assay: Inhibition of human AChE
[8] = biological target: T1, Acetylcholinesterase; assay: Inhibition of electric eel AChE
[9] = biological target: T2, Cholinesterase; assay: Inhibition of equine serum BuChE
[10] = Ratio of IC50 for equine BuChE to IC50 for electric eel AChE
[11] = biological target: T1, Acetylcholinesterase; assay: Inhibition of electric eel AChE using acetylthiocholine incubated for 30 mins by measuring hydrolysis of substrate by Ellman's method
[12] = biological target: T5, Amine oxidase [flavin-containing] B (Homo sapiens, UniProt P27338); assay: Inhibition of MAO-B (unknown origin)
T5 sequence (P27338 whole entry): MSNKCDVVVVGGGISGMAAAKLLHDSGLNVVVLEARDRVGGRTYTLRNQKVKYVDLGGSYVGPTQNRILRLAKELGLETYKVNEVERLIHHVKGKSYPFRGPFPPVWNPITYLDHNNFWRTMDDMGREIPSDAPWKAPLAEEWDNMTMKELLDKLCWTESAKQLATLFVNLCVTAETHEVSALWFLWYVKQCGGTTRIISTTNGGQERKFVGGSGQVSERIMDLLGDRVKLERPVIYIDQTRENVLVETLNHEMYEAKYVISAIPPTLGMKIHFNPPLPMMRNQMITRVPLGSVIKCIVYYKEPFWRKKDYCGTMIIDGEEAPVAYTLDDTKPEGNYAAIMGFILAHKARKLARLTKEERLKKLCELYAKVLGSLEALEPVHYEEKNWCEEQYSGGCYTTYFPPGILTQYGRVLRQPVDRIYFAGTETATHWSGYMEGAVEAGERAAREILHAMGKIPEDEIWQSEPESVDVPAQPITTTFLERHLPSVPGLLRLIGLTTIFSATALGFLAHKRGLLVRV

[13] = biological target: T6, Amine oxidase [flavin-containing] A (Homo sapiens, UniProt P21397); assay: Inhibition of MAO-A (unknown origin)
T6 sequence (P21397 whole entry): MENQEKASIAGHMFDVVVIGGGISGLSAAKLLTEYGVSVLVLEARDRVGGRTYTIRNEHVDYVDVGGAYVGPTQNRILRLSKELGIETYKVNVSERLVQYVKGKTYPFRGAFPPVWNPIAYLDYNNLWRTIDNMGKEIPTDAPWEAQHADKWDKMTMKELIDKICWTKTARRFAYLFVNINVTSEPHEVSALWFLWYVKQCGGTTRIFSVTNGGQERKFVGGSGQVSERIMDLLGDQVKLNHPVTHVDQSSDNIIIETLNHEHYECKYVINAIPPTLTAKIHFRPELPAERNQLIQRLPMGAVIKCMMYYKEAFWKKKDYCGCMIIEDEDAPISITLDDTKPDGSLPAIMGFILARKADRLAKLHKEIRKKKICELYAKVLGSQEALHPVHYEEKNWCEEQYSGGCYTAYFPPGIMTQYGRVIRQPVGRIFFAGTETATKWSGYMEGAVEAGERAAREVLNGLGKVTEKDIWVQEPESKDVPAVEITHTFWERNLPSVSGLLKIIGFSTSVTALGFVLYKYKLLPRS

[14] = biological target: T7, Beta-secretase 1 (Homo sapiens, UniProt P56817); assay: Inhibition of BACE1 (unknown origin) incubated in dark for 90 mins by FRET assay
[15] = Antioxidant activity assessed as radical scavenging incubated for 90 mins in dark DPPH assay; assay type: functional
[16] = biological target: T3, Acetylcholinesterase; assay: Inhibition of AChE (unknown origin) by Ellman's method
[17] = biological target: T4, Cholinesterase; assay: Inhibition of BuChE (unknown origin) by Ellman's method
[18] = biological target: T8, Amyloid-beta precursor protein (Homo sapiens, UniProt P05067); assay: Inhibition of amyloid beta 1 to 42 (unknown origin) […]
[19] = biological target: T7, Beta-secretase 1; assay: Inhibition of recombinant human BACE1 using fluorogenic 7-methoxycoumarin-4-yl)acetyl-Ser-Glu-Val-Asn-Leu-Asp-Ala-Glu-Phe-ArgLys(2, 4-dinitrophenyl)-Arg-Arg-NH2 as substrate measured every 5 mins for 120 mins by CFA
[20] = biological target: T7, Beta-secretase 1; assay: Inhibition of recombinant human BACE1 in human SH-SY5Y cells using fluorogenic 7-methoxycoumarin-4-yl)acetyl-Ser-Glu-Val-Asn-Leu-Asp-Ala-Glu-Phe-ArgLys(2, 4-dinitrophenyl)-Arg-Arg-NH2 as substrate measured every 5 mins for 120 mins by WCA; assay type: cell-based
[21] = test system: SH-SY5Y; assay: Cytotoxicity against human SH-SY5Y cells; assay type: functional, cell-based
[22] = test system: SH-SY5Y; assay: Cytotoxicity against human SH-SY5Y cells assessed as cell viability at 100 uM relative to control; assay type: functional; conditions: read-out: Activity
[23] = biological target: Cyclin-dependent kinase 1 (Homo sapiens, UniProt P06493); assay: Inhibition of CDK1 (unknown origin)
[24] = biological target: Cyclin-dependent kinase 5 (Homo sapiens, UniProt Q00535); assay: Inhibition of CDK5 (unknown origin)
[25] = biological target: Glycogen synthase kinase-3 (Homo sapiens, UniProt P49840+P49841); assay: Inhibition of GSK3alpha/beta (unknown origin); assay type: protein assay
[26] = biological target: Cyclin-dependent kinase 2 (Homo sapiens, UniProt P24941); assay: Inhibition of CDK2 (unknown origin)
[27] = biological target: Cyclin-dependent kinase 3 (Homo sapiens, UniProt Q00526); assay: Inhibition of CDK3 (unknown origin)
[28] = biological target: Cyclin-dependent kinase 4 (Homo sapiens, UniProt P11802); assay: Inhibition of CDK4 (unknown origin)
[29] = biological target: T8, Amyloid-beta precursor protein; assay: Inhibition of amyloid beta 1 to 42 aggregation in human SH-SY5Y cells; assay type: cell-based
[30] = biological target: T8, Amyloid-beta precursor protein; assay: Inhibition of amyloid beta 1 to 40 aggregation in human SH-SY5Y cells; assay type: cell-based

T7 sequence (P56817 whole entry): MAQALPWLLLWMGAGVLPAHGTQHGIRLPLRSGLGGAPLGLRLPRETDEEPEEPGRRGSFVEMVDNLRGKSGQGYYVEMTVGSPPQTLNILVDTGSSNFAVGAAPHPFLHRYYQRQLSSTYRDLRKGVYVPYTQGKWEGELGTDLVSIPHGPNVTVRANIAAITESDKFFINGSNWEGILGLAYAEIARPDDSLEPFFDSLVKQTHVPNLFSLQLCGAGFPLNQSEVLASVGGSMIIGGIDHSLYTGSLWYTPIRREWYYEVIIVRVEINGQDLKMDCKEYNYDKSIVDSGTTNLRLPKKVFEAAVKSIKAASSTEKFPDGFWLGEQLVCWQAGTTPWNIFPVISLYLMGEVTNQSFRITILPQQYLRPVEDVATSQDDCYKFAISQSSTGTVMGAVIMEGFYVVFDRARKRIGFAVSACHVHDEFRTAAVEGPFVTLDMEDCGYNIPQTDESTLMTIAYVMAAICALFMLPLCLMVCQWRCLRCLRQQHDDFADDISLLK
T1 sequence (O42275 whole entry): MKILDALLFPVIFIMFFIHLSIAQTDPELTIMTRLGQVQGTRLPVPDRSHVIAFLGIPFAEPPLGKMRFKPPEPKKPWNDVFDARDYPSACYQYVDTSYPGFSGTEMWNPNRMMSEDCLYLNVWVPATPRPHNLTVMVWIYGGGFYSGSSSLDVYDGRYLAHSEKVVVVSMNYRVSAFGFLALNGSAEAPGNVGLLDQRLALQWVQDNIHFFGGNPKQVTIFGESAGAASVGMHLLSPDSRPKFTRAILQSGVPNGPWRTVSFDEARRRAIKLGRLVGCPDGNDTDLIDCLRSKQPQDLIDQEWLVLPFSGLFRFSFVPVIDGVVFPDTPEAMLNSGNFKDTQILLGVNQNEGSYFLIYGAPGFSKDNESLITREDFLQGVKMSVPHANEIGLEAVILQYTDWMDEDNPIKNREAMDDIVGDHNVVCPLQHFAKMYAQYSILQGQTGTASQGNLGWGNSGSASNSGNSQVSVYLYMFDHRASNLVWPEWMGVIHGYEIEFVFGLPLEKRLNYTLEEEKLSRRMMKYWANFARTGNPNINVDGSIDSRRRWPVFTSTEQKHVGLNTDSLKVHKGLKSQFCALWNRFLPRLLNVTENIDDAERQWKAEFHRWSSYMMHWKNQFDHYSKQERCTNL
Sequence of Cyclin-dependent kinase 1 (P06493 whole entry): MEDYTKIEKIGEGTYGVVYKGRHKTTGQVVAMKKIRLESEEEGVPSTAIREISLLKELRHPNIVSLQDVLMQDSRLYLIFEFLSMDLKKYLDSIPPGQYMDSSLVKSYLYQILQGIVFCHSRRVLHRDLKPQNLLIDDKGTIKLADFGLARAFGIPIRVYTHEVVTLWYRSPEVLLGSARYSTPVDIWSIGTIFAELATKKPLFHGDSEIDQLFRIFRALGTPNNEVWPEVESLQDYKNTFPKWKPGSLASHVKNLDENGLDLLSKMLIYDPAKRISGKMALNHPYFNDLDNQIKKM
T3 sequence (P22303 whole entry): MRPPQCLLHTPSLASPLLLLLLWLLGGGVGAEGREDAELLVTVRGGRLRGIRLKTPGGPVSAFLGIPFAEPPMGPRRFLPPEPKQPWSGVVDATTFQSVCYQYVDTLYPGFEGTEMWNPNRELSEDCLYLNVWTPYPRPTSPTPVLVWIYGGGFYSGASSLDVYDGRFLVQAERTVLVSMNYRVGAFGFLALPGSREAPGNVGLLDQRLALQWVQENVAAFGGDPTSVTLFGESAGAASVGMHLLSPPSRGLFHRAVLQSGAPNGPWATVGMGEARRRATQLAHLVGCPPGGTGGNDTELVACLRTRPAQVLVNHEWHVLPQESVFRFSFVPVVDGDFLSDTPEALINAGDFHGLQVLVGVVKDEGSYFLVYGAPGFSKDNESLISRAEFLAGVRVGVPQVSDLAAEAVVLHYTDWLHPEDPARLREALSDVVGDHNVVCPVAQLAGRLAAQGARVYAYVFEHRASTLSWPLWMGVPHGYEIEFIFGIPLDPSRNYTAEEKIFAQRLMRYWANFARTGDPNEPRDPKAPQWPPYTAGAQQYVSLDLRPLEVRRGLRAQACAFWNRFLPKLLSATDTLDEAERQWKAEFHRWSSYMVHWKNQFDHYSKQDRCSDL
T8 sequence (P05067 whole entry): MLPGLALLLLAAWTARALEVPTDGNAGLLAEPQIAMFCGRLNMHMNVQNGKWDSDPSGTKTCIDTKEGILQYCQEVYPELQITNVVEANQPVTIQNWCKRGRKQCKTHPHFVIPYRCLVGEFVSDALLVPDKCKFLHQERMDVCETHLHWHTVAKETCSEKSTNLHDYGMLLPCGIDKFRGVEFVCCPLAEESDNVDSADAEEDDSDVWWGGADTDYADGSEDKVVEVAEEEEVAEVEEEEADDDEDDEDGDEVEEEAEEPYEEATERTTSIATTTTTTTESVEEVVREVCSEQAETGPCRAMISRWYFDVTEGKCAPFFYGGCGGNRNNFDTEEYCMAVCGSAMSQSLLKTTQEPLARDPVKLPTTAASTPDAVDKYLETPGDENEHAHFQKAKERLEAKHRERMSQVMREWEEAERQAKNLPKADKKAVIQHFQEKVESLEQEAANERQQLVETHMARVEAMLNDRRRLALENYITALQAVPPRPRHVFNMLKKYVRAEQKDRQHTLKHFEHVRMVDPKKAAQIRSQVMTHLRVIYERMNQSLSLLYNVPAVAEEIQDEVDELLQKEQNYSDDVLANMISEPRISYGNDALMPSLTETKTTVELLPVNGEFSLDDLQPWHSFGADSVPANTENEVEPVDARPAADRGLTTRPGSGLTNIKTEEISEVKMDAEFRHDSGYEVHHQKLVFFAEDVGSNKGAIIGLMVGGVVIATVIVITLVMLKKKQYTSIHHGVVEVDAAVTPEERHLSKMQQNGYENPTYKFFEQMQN
T2 sequence (P81908 whole entry): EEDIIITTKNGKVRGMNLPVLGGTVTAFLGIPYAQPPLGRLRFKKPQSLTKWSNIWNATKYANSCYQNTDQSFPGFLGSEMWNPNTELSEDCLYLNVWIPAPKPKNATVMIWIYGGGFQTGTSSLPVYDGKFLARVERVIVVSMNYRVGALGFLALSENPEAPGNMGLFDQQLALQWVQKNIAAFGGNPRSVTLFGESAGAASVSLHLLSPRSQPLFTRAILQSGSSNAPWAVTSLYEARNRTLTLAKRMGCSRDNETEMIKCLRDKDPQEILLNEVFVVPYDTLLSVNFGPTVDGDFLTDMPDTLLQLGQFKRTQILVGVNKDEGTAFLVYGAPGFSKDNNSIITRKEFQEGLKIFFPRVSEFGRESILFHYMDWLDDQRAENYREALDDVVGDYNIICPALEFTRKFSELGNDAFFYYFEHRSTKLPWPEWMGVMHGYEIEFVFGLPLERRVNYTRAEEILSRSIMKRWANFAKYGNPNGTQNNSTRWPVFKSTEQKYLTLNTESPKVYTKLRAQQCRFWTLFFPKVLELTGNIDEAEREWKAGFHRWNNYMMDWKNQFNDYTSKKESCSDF
T4 sequence (P06276 whole entry): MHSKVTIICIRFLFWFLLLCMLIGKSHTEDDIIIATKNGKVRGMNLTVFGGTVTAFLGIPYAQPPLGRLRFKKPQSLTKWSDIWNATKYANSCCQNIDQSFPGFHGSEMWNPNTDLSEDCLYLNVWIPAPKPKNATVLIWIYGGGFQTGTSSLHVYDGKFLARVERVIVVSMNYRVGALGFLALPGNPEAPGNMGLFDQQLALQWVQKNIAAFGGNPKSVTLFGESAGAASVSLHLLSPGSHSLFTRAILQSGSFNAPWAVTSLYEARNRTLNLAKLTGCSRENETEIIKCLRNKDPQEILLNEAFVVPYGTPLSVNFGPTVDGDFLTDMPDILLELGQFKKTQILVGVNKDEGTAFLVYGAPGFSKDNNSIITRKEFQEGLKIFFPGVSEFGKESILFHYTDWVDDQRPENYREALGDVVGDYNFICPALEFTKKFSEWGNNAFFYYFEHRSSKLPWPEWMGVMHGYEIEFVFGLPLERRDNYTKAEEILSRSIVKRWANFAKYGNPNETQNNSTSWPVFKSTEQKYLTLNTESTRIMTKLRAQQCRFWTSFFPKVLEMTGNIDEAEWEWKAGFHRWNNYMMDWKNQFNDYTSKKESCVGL
Sequence of Cyclin-dependent kinase 5 (Q00535 whole entry): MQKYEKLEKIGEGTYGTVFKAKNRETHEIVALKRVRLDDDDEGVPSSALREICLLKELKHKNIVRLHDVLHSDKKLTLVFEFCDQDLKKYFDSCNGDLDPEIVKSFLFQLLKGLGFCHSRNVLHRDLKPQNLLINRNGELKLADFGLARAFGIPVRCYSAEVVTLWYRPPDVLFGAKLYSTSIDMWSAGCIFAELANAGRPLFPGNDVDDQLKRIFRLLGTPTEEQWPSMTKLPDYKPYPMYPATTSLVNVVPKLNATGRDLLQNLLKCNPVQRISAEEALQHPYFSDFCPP
Sequence of Cyclin-dependent kinase 4 (P11802 whole entry): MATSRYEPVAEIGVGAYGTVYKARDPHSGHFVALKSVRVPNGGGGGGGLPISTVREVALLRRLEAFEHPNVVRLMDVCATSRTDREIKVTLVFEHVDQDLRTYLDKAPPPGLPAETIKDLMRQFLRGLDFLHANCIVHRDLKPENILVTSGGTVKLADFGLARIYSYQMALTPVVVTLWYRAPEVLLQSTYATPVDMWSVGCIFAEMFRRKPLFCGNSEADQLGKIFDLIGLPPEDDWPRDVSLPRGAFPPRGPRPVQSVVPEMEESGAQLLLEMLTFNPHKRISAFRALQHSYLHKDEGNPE
Sequence of Cyclin-dependent kinase 3 (Q00526 whole entry): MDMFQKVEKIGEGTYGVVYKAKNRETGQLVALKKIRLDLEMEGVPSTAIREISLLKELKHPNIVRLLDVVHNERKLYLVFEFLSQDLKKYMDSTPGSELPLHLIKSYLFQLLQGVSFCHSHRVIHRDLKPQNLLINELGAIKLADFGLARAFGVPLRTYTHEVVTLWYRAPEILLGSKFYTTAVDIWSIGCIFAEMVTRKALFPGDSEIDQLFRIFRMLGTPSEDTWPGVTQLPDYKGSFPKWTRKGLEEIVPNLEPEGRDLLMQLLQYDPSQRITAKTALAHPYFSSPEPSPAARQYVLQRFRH

Compound: C=CCNC(=S)NNc1nc2nc(SC)nn2c2ccccc12
inhibition [1]: 91%

Compound: CC1(c2ccc(Cl)cc2)NC(=O)c2cc(Br)cc(Br)c2N1 (stereo not drawn)
IC50 [2]: 1.6 µM
IC50 [3]: 3.7 µM
Ratio IC50 [4]: 2.3

Compound: O=c1c2ccccc2nc2n1CCC2O (stereo not drawn)
IC50 [5]: 76.6 µM
IC50 [6]: 10.2 µM

Compound: O=C(O)C1=Nc2ccccc2CN1
IC50 [5]: 345 µM
IC50 [6]: > 1000 µM

Compound: CSc1nc2nc(NNC(=S)NC3CCCCC3)c3ccccc3n2n1
inhibition [1]: 91.2%

Compound: O=c1c2ccccc2nc2n1C(C1CN=Cc3[nH]c4ccccc4c31)CC2O (stereo not drawn)
IC50 [5]: 40.5 µM
IC50 [6]: 9.26 µM

Compound: c1ccc2c(c1)CCCN1Cc3cc(OCCCN4CCCCC4)ccc3N=C21
IC50 [7]: 0.535 µM
IC50 [8]: 0.0571 µM
IC50 [9]: 2.67 µM
Ratio IC50 [10]: 47

Compound: c1ccc2c(c1)CN1Cc3cc(OCCCN4CCCCC4)ccc3N=C21
IC50 [7]: 0.142 µM
IC50 [8]: 0.0069 µM
IC50 [9]: 4.14 µM
Ratio IC50 [10]: 600

Compound: CN1C(=O)C2(Nc3cc(Cl)ccc3-c3ccnn32)c2cc(Cl)ccc21 (stereo not drawn)
IC50 [11]: 88.2 µM
IC50 [6]: 219 µM

Compound: c1cc2c(cc1OCCCN1CCCCC1)CN1CCCC1=N2
IC50 [7]: 1.1 µM
IC50 [8]: 0.0692 µM
IC50 [9]: 0.122 µM
Ratio IC50 [10]: 1.76

IC50 [12]: 83 µM
IC50 [13]: 0.0021 µM
Compound: NNC(=O)CN1C(=O)c2ccccc2NC1c1ccc2c(c1)OCO2 (stereo not drawn)

IC50 [14]: 27.6 µM
IC50 [15]: 8.4 µM
Compound: Cn1c(N/N=C/c2ccc(O)cc2O)nc2ccccc2c1=O

Compound: OC1CCN2Cc3ccccc3N=C12 (stereo not drawn)
IC50 [5]: 13.7 µM
IC50 [6]: 2.6 µM

Compound: COc1cc2c(Nc3ccc(C(=O)/C=C/c4nc(C)c(C)nc4C)cc3)ncnc2c(OC)c1OC
IC50 [16]: 0.1 µM
IC50 [17]: 22.4 µM
IC50 [13]: 47.4 µM
IC50 [18]: 26.7 µM

IC50 [19]: 0.49 µM
IC50 [20]: 0.14 µM
Compound: Cn1cc(CN(C(=O)CCCN2C(N)=Nc3ccc(Oc4ccccc4)cc3C2CC2CCCCC2)C2CCCCC2)cn1 (stereo not drawn)
IC50 [21]: 11.8 µM

IC50 [15]: > 100 µM
Compound: Cn1c(N/N=C/c2cccc(Cl)c2Cl)nc2ccccc2c1=O

Compound: O=C(NCCc1ccc(O)cc1)C1CCC2=Nc3ccc(Br)cc3CN21 (stereo not drawn)
viability at 100 µM [22]: 78.6%

IC50 [23]: > 10 µM
IC50 [24]: > 10 µM
IC50 [25]: 0.2 µM
Compound: COC(=N)c1nc2ccc3ncnc(Nc4ccc(OC)cc4)c3c2s1

IC50 [23]: 0.0228 µM
IC50 [26]: 0.0888 µM
IC50 [27]: > 10 µM
IC50 [28]: 0.059 µM
Compound: COC(=N)c1nc2ccc3ncnc(Nc4ccc(Cl)cc4Cl)c3c2s1

IC50 [29]: 0.66 µM
IC50 [30]: > 10 µM
Compound: COc1cc(/C=C/c2nc3cc(Cl)ccc3c(=O)[nH]2)ccc1-n1cnc(C)c1

Compound: c1cc2c(cc1OCCCN1CCCCC1)CN1CCCCC1=N2
IC50 [7]: 0.225 µM
IC50 [8]: 0.0333 µM
IC50 [9]: 0.00655 µM
Ratio IC50 [10]: 0.197

IC50 [23]: > 10 µM
IC50 [24]: > 10 µM
IC50 [25]: 0.16 µM
Compound: COC(=N)c1nc2ccc3ncnc(Nc4ccc(Br)cc4F)c3c2s1

Compound: O=c1[nH]c(CCCO)nc2ccccc12
IC50 [5]: 155 µM
IC50 [6]: 105 µM
